The text below walks through data of patent US10721934B2, “Enhanced preservative” (Arch Chemicals, Inc., priority 2013, dated 2020).

Holding throughout (format): cell-based
The test system of one experiment is Escherichia coli. The experiment in a line: MIC test, 96 well microtiter plate. The settings on record: single chemical. How it is done: (§1) MIC set up: A 96 well microtiter plate Minimum Inhibitory Concentration (MIC) test was run in broth suitable for the test organism. Serially diluted actives were prepared in sterilized water, and the start-up concentration varied depending on the efficacy range. Inocula prepared in 2× suitable broth was added into each well, and the final concentrations of bacteria were adjusted to approximately 5×10^5.
(§2) Further MIC tests were conducted using different amine compounds in combination with a pyrithione and two different isothiazolinones. The procedures described in Example No. 1 were used.

A further experiment deals with Aspergillus brasiliensis. The experiment in a line: MIC test, 96 well microtiter plate. The settings on record: single chemical. How it is done: as §1, §2
In a further experiment the test system is Staphylococcus aureus. The experiment in a line: MIC test, 96 well microtiter plate. The settings on record: single chemical. How it is done: as §1, §2
The next experiment concerns Candida albicans. Kind of experiment: MIC test, 96 well microtiter plate. The note with it: single chemical. Here is the method: as §1, §2
Another experiment deals with Aureobasidium pullulans. The experiment in a line: MIC test, 96 well microtiter plate. The settings on record: single chemical. How it is done:
as §1, §2

Experiment [1] relates to mixed bacterial inoculum (Pseudomonas aeruginosa, Enterobacter cloacae, Escherichia coli, Acinetobacter calcoaceticus). Kind of experiment: Repeated inoculation of standard acrylic paint, streak plate rating. How it is done: In the following experiments, a pyrithione, an isothiazolinone, and a biocide enhancing agent in accordance with the present disclosure were combined with a standard acrylic paint. The concentrations of the pyrithione, the isothiazolinone and the biocide enhancing agent were varied. The pyrithione, the isothiazolinone and the biocide enhancing agent were added alone and in various mixtures to the standard acrylic paint.
The acrylic paint was then inoculated three times using a mixed bacterial inoculum. The bacterial inoculum, which comprised a bacterial suspension in water, contained the following four bacteria in equal proportions.
The samples were streak plated at 24, 48, and 72 hours after inoculation. The streak plates were rated as follows;

For experiment [2], the system named is Pseudomonas aeruginosa ATCC 15442. Kind of experiment: Minimum Inhibitory Concentration (MIC) test, 96 well microtiter plate. The note with it: for biocide enhancing effect on zinc pyrithione: MIC of blends with ZnPT, Table 1; for MIC: Pseudomonas aeruginosa, ATCC15442, single chemical. Here is the method:
Microorganisms: Pseudomonas aeruginosa ATCC 15442
as §1

Molecules are shown by their SMILES. Converted amounts (≈) assume the structure as drawn.

Consider `CCCCn1sc2ccccc2c1=O` [BBIT], for which the “Minimum Inhibitory Concentration” value with Escherichia coli stood at 80.0 ppm; in the experiment on Aspergillus brasiliensis it was 1.9 ppm; in the experiment with Staphylococcus aureus it was 5.0 ppm; in the experiment on Candida albicans it was 3.75 ppm; in the experiment on Aureobasidium pullulans, 2.5 ppm.
Take `CCCCCCCCCCCCN` [DDA, 1-dodecylamine]: the streak plate rating in experiment [1] (Set Four, DDA 600 ppm, 1st inoculation 24 h) is 5 (>45 viable microorganisms Severely contaminated); in experiment [1] (Set Four, DDA 600 ppm, 1st inoculation 48 h), 2 (6-15 viable microorganisms Lightly contaminated); in experiment [1] (Set Four, DDA 600 ppm, 1st inoculation 72 h), 0; in experiment [1] (Set Four, DDA 600 ppm, 2nd inoculation 24 h), 5 (>45 viable microorganisms Severely contaminated); in experiment [1] (Set Four, DDA 600 ppm, 2nd inoculation 48 h), 5 (>45 viable microorganisms Severely contaminated); in experiment [1] (Set Four, DDA 600 ppm, 2nd inoculation 72 h) it was 5 (>45 viable microorganisms Severely contaminated). Besides, the streak plate rating in experiment [1] (Set Four, DDA 600 ppm, 3rd inoculation 24 h) was 5 (>45 viable microorganisms Severely contaminated); in experiment [1] (Set Four, DDA 600 ppm, 3rd inoculation 48 h), 5 (>45 viable microorganisms Severely contaminated); in experiment [1] (Set Four, DDA 600 ppm, 3rd inoculation 72 h) it was 5 (>45 viable microorganisms Severely contaminated); in experiment [1] (Set One, DDA 600 ppm, 1st inoculation 24 h), 5 (>45 viable microorganisms Severely contaminated); in experiment [1] (Set One, DDA 600 ppm, 1st inoculation 48 h), 5 (>45 viable microorganisms Severely contaminated); in experiment [1] (Set One, DDA 600 ppm, 1st inoculation 72 h), 5 (>45 viable microorganisms Severely contaminated). In addition, the streak plate rating in experiment [1] (Set One, DDA 600 ppm, 2nd inoculation 24 h) is on record as 5 (>45 viable microorganisms Severely contaminated); in experiment [1] (Set One, DDA 600 ppm, 2nd inoculation 48 h) it was 5 (>45 viable microorganisms Severely contaminated); in experiment [1] (Set One, DDA 600 ppm, 3rd inoculation 24 h), 5 (>45 viable microorganisms Severely contaminated); in experiment [1] (Set One, DDA 600 ppm, 3rd inoculation 48 h), 5 (>45 viable microorganisms Severely contaminated); in experiment [1] (Set One, DDA 600 ppm, 3rd inoculation 72 h), 5 (>45 viable microorganisms Severely contaminated); in experiment [1] (Set One, DDA 900 ppm, 1st inoculation 24 h) it was 5 (>45 viable microorganisms Severely contaminated). Moreover, the streak plate rating was 5 (>45 viable microorganisms Severely contaminated) in experiment [1] (Set One, DDA 900 ppm, 1st inoculation 48 h); 5 (>45 viable microorganisms Severely contaminated) in experiment [1] (Set One, DDA 900 ppm, 1st inoculation 72 h); 5 (>45 viable microorganisms Severely contaminated) in experiment [1] (Set One, DDA 900 ppm, 2nd inoculation 24 h); 5 (>45 viable microorganisms Severely contaminated) in experiment [1] (Set One, DDA 900 ppm, 2nd inoculation 48 h); 5 (>45 viable microorganisms Severely contaminated) in experiment [1] (Set One, DDA 900 ppm, 3rd inoculation 24 h); 5 (>45 viable microorganisms Severely contaminated) in experiment [1] (Set One, DDA 900 ppm, 3rd inoculation 48 h). Besides, the streak plate rating is listed as 5 (>45 viable microorganisms Severely contaminated) in experiment [1] (Set One, DDA 900 ppm, 3rd inoculation 72 h); 5 (>45 viable microorganisms Severely contaminated) in experiment [1] (Set One, DDA 1200 ppm, 1st inoculation 24 h); 5 (>45 viable microorganisms Severely contaminated) in experiment [1] (Set One, DDA 1200 ppm, 1st inoculation 48 h); 5 (>45 viable microorganisms Severely contaminated) in experiment [1] (Set One, DDA 1200 ppm, 1st inoculation 72 h); 5 (>45 viable microorganisms Severely contaminated) in experiment [1] (Set One, DDA 1200 ppm, 2nd inoculation 24 h); 5 (>45 viable microorganisms Severely contaminated) in experiment [1] (Set One, DDA 1200 ppm, 2nd inoculation 48 h). Besides, the streak plate rating was 5 (>45 viable microorganisms Severely contaminated) in experiment [1] (Set One, DDA 1200 ppm, 3rd inoculation 24 h); 5 (>45 viable microorganisms Severely contaminated) in experiment [1] (Set One, DDA 1200 ppm, 3rd inoculation 48 h); 5 (>45 viable microorganisms Severely contaminated) in experiment [1] (Set One, DDA 1200 ppm, 3rd inoculation 72 h); 2 (6-15 viable microorganisms Lightly contaminated) in experiment [1] (Set One, DDA 1800 ppm, 1st inoculation 24 h); 3 (16-30 viable microorganisms Moderately contaminated) in experiment [1] (Set One, DDA 1800 ppm, 1st inoculation 48 h); 1 (1-5 viable microorganisms Very lightly contaminated) in experiment [1] (Set One, DDA 1800 ppm, 1st inoculation 72 h). Also, the streak plate rating in experiment [1] (Set One, DDA 1800 ppm, 2nd inoculation 24 h) was 5 (>45 viable microorganisms Severely contaminated); in experiment [1] (Set One, DDA 1800 ppm, 2nd inoculation 48 h), 5 (>45 viable microorganisms Severely contaminated); in experiment [1] (Set One, DDA 1800 ppm, 3rd inoculation 24 h), 5 (>45 viable microorganisms Severely contaminated); in experiment [1] (Set One, DDA 1800 ppm, 3rd inoculation 48 h) it was 5 (>45 viable microorganisms Severely contaminated); in experiment [1] (Set One, DDA 1800 ppm, 3rd inoculation 72 h), 5 (>45 viable microorganisms Severely contaminated); in experiment [1] (Set Two, DDA alone, ppm not given, 1st inoculation 24 h), 5 (>45 viable microorganisms Severely contaminated). For the same compound, the streak plate rating in experiment [1] (Set Two, DDA alone, ppm not given, 1st inoculation 48 h) was 5 (>45 viable microorganisms Severely contaminated); in experiment [1] (Set Two, DDA alone, ppm not given, 1st inoculation 72 h), 5 (>45 viable microorganisms Severely contaminated); in experiment [1] (Set Two, DDA alone, ppm not given, 2nd inoculation 24 h), 5 (>45 viable microorganisms Severely contaminated); in experiment [1] (Set Two, DDA alone, ppm not given, 2nd inoculation 48 h), 5 (>45 viable microorganisms Severely contaminated); in experiment [1] (Set Two, DDA alone, ppm not given, 2nd inoculation 72 h) it was 5 (>45 viable microorganisms Severely contaminated); in experiment [1] (Set Two, DDA alone, ppm not given, 3rd inoculation 24 h), 5 (>45 viable microorganisms Severely contaminated). Further, the streak plate rating is reported as 5 (>45 viable microorganisms Severely contaminated) in experiment [1] (Set Two, DDA alone, ppm not given, 3rd inoculation 48 h) and 5 (>45 viable microorganisms Severely contaminated) in experiment [1] (Set Two, DDA alone, ppm not given, 3rd inoculation 72 h). Besides, the “biocide enhancing effect on the isothiazolin” value in experiment [2] (MIC of blends with BIT, Table 2) is reported as “had an enhancing effect on the isothiazolin”. Further, the “biocide enhancing effect on zinc pyrithione” value in experiment [2] is listed as “enhance the effectiveness of the zinc pyrithione”. The MIC in experiment [2] was determined as 200 µg/mL (≈ 1080 µM).
Consider `CCCCCCCCCCCCN1CCOCC1` [DDM, 4-Dodecylmorpholine], for which the streak plate rating in experiment [1] (Set Three, DDM 1200 ppm, 1st inoculation 24 h) is 5 (>45 viable microorganisms Severely contaminated); in experiment [1] (Set Three, DDM 1200 ppm, 1st inoculation 48 h) it was 5 (>45 viable microorganisms Severely contaminated); in experiment [1] (Set Three, DDM 1200 ppm, 1st inoculation 72 h), 5 (>45 viable microorganisms Severely contaminated); in experiment [1] (Set Three, DDM 1200 ppm, 2nd inoculation 24 h), 5 (>45 viable microorganisms Severely contaminated); in experiment [1] (Set Three, DDM 1200 ppm, 2nd inoculation 48 h), 5 (>45 viable microorganisms Severely contaminated); in experiment [1] (Set Three, DDM 1200 ppm, 2nd inoculation 72 h), 5 (>45 viable microorganisms Severely contaminated). Further, the streak plate rating in experiment [1] (Set Three, DDM 1200 ppm, 3rd inoculation 24 h) was 5 (>45 viable microorganisms Severely contaminated); in experiment [1] (Set Three, DDM 1200 ppm, 3rd inoculation 48 h), 5 (>45 viable microorganisms Severely contaminated); in experiment [1] (Set Three, DDM 1200 ppm, 3rd inoculation 72 h), 5 (>45 viable microorganisms Severely contaminated).
In the case of `CCCCCCCCCCCCCCCCCCN(C)C` [DMODA, N,N-Dimethyloctadecylamine], in experiment [2], the “biocide enhancing effect on zinc pyrithione” value is recorded as “enhance the effectiveness of the zinc pyrithione” and the MIC was greater than 640 µg/mL.
